Article PMC4742234, “Screening of Drug Metabolizing Enzymes for the Ginsenoside Compound K In Vitro: An Efficient Anti-Cancer Substance Originating from Panax Ginseng” (PLoS ONE, 2016)
Entries after “also recorded” stand apart in the source; their conditions may differ.

Legend:
[1] = test system: CYP1A2, CYP2A6, CYP2D6, CYP2E1, CYP2C19; assay: Effect of the other specific inhibitors on CK metabolism in HLMs; format: in vitro ADME, human; details: CK 50 μM, furafylline, tranylcypromine, quinidine, ticlopidine 1 μM, chlormethiazole 5 μM
Protocol: The method was conducted according to our previous study with some modifications. The CYP isoform-specific probe reactions used were phenacetin O-deethylation (for CYP1A2), coumarin 7-hydroxylation (for CYP2A6), tolbutamide 4-hydroxylation (for CYP2C9), metoprolol α-hydroxylation (for CYP2D6), chlorzoxazone 6-hydroxylation (for CYP2E1),S-Mephenytoin 4-hydroxylation (for CYP2C19), and midazolam 1-hydroxylation (for CYP3A4). The kinetic study of CK was conducted with HLMs. A 0.2 mL incubation mixture that consisted of CK (as a substrate), the HLMs (0.5 mg/mL) or CYP isoforms (10 pmol), and 0.1 M sodium phosphate buffer (pH 7.4) was pre-warmed for 5 min at 37°C. The reaction was initiated by the addition of 1 mg/mL triphosphopyridine nucleotide (NADPH). […]
To screen the specific CYP isoform responsible for the CK metabolism, we determined the inhibitory effect of specific inhibitors on the metabolism of CK in the HLMs as described in detail previously. […] The inhibitory effects of the above specific inhibitors on the metabolic clearance rate of CK were evaluated separately to screen the CYP isoforms responsible for the CK metabolism. The relative activity of the CYP isoforms was calculated by dividing the peak area of CK when incubated with the inhibitor by that of CK from the negative controls. […]

[2] = Plasma pharmacokinetics of CK in healthy volunteers; details: male, human, 800 mg
Protocol: Note that in our other study carried out in healthy volunteers, 10 healthy male volunteers received administrations of 800 mg pure CK tablets (100mg/tablet, provided by Zhejiang Hisun Pharmaceutical Company Limited, China) swallowed by 150 mL water, then series venous blood samples of 5 mL were collected into EDTA-containing tubes at 0, 0.25, 0.5, 1, 1.5, 2, 2.5, 3, 3.5, 4, 5, 6, 8, 12, 24, 36, 48, 72 and 96h. The plasma samples were analyzed by HPLC-MS/MS, the peak plasma concentration (Cmax) and time to peak plasma concentration (Tmax) were directly obtained from the observed concentration-time data. The area under the plasma concentration-time curve (AUC) from time zero to last measured concentration (AUC(0−t)) was calculated according to the linear trapezoidal rule, the estimate of oral clearance(CL/F) was calculated as CL/F = Dose /AUC(0–t).

## CC(C)=CCC[C@](C)(OC1O[C@H](CO)[C@@H](O)[C@H](O)[C@H]1O)[C@H]1CC[C@]2(C)[C@@H]1[C@H](O)C[C@@H]1[C@@]3(C)CC[C@H](O)C(C)(C)[C@@H]3CC[C@]12C (stereo partly drawn) [CK, 20-O-β-(D-glucopyranosyl)-20(S)-protopanaxadiol]
[1]
  effect of other specific inhibitors / CYP isoforms on CK metabolism: minimal or no effect; also recorded: no obvious inhibitory effects; also recorded: no significant inhibitory effects
[2]; oral
  Cmax: ~5 µM
[2]; po
  Cmax: 4.07 µM
